Several values for one entry are separate records, joined by “and”; a condition that tells them apart may be missing. Equal values may be shown once.
Columns and labels:
Experiment in all cases: radiometric filter-binding kinase assay, Kinase HotSpot
Details in all cases: compound 0.5 µM; ATP 10 µM
CAMKK1 (human) = CAMKK1 (human) (UniProt Q8N5S9)
PRKCA (human) = PRKCA (human) (UniProt P17252)
CDK2 CCNE1 (human) = CDK2 CCNE1 (human) (UniProt P24941+P24864)
CSNK1A1 (human) = CSNK1A1 (human) (UniProt P48729)
MAPK14 (human) = MAPK14 (human) (UniProt Q16539)
FGFR3 (human) = FGFR3 (human) (UniProt P22607)
MAPK1 (human) = MAPK1 (human) (UniProt P28482)
NEK4 (human) = NEK4 (human) (UniProt P51957)
[1] = tested on: PRKCQ (human), Q04759 [P330L]
FGFR2 (human) = FGFR2 (human) (UniProt P21802)
FGFR2 (human), sequence (P21802 whole entry, looked up): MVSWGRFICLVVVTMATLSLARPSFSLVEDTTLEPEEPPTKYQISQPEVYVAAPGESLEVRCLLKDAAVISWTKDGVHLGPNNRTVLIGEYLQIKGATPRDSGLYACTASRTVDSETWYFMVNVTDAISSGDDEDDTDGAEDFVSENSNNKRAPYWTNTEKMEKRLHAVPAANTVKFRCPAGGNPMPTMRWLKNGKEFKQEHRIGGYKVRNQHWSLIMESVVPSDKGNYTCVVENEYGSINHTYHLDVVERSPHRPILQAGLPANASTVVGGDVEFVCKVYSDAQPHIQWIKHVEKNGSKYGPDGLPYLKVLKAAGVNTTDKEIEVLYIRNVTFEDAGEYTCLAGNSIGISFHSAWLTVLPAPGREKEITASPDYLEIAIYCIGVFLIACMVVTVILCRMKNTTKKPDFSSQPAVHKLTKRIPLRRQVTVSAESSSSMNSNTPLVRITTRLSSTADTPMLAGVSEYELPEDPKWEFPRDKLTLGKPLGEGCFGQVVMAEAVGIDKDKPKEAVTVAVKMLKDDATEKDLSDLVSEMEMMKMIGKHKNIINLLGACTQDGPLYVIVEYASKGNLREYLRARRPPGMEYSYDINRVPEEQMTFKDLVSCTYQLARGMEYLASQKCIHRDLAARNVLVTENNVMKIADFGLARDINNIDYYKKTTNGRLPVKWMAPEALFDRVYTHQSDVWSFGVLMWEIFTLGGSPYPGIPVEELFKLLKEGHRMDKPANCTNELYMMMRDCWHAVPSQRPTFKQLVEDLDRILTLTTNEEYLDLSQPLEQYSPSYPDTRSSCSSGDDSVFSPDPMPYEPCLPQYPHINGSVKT

MKNK2 (human) = MKNK2 (human) (UniProt Q9HBH9)
FLT1 (human) = FLT1 (human) (UniProt P17948)
NTRK2 (human) = NTRK2 (human) (UniProt Q16620)
[2] = molecular target: TYK2 JH1 catalytic (human) (UniProt P29597)
PIM3 (human) = PIM3 (human) (UniProt Q86V86)
RPS6KA2 KD1 KD2 (human) = RPS6KA2 KD1 KD2 (human) (UniProt Q15349)
CAMKK2 (human) = CAMKK2 (human) (UniProt Q96RR4)
TTK (human) = TTK (human) (UniProt P33981)
TTK (human), sequence (P33981 whole entry, looked up): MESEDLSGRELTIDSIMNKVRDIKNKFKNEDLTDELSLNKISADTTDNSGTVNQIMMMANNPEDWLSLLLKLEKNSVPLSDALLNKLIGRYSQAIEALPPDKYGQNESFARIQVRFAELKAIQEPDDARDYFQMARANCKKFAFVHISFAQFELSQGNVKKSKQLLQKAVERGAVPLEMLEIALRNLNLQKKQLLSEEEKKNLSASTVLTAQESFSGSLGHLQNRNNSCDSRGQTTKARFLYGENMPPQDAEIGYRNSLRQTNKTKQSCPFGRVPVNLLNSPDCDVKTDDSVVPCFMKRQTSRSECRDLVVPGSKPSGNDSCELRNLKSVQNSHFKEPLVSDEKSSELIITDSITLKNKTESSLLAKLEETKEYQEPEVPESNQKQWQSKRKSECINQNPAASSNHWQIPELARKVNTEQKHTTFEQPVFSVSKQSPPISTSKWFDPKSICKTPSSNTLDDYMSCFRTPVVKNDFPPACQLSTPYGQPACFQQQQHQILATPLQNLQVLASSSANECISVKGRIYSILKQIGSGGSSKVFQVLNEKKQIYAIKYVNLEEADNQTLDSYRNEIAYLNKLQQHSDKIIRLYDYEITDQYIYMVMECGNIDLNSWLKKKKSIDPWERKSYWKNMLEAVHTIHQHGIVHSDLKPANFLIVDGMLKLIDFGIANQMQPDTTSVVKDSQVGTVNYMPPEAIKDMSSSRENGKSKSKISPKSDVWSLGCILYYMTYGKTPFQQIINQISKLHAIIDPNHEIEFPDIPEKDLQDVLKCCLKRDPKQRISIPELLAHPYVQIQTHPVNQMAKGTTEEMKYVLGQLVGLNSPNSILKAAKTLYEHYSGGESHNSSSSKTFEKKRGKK

STK33 (human) = STK33 (human) (UniProt Q9BYT3)
STK33 (human), sequence (Q9BYT3 whole entry, looked up): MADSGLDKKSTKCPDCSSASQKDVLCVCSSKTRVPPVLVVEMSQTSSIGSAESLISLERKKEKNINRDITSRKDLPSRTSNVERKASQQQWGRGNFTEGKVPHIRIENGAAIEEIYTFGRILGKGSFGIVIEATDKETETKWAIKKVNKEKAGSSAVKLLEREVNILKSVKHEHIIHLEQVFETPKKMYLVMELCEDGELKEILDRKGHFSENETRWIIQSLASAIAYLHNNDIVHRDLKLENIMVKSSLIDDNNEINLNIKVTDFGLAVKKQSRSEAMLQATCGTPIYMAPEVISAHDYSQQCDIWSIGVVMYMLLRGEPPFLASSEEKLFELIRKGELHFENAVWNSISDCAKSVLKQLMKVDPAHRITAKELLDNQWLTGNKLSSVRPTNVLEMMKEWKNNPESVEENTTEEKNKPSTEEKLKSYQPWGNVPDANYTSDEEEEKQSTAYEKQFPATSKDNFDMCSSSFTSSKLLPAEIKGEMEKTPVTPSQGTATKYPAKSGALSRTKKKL

MAPK8 (human) = MAPK8 (human) (UniProt P45983)
CDK7 CCNH MNAT1 (human) = CDK7 CCNH MNAT1 (human) (UniProt P50613+P51948+P51946)
LYN (human) = LYN (human) (UniProt P07948)
FYN (human) = FYN (human) (UniProt P06241)
MAPK10 (human) = MAPK10 (human) (UniProt P53779)
CAMK1D (human) = CAMK1D (human) (UniProt Q8IU85)
MST1R (human) = MST1R (human) (UniProt Q04912)
PRKCG (human) = PRKCG (human) (UniProt P05129)
JAK2 JH1 JH2 (human) = JAK2 JH1 JH2 (human) (UniProt O60674)
JAK2 JH1 JH2 (human), sequence (O60674 whole entry, looked up): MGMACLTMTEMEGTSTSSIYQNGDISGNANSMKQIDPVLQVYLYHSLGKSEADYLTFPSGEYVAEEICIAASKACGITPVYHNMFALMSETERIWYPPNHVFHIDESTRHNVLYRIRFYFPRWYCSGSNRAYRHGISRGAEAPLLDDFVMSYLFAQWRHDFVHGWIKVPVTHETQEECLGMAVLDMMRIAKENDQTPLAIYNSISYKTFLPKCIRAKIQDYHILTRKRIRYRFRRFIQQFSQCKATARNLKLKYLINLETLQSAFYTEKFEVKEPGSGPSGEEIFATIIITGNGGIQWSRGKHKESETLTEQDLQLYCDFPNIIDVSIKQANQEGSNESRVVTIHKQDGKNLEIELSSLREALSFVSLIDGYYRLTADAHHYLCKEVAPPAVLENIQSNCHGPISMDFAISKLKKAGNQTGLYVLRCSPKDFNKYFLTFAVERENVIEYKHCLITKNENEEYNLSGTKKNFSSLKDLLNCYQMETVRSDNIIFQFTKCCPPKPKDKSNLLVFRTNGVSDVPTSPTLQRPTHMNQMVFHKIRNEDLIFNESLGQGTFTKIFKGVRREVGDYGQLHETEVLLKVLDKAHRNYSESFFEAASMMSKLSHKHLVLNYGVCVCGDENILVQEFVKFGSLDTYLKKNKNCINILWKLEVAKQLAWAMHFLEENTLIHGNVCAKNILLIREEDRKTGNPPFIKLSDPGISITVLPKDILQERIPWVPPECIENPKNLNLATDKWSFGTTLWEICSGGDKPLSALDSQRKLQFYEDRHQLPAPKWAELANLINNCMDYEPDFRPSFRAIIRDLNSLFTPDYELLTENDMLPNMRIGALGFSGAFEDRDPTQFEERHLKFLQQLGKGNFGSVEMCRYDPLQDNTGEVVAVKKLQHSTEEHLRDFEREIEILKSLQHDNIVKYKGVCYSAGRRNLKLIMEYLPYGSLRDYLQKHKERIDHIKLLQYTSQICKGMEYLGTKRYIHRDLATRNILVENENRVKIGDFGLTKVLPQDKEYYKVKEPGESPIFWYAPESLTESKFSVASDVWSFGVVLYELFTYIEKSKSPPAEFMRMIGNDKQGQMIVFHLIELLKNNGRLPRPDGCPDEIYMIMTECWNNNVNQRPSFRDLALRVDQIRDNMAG

FER (human) = FER (human) (UniProt P16591)
PRKCB2 (human) = PRKCB2 (human) (UniProt P05771)
DAPK3 (human) = DAPK3 (human) (UniProt O43293)
AKT1 (human) = AKT1 (human) (UniProt P31749)
CDK5 CDK5R1 p35 (human) = CDK5 CDK5R1 p35 (human) (UniProt Q00535+Q15078)
PAK1 (human) = PAK1 (human) (UniProt Q13153)
DYRK2 (human) = DYRK2 (human) (UniProt Q92630)
RAF1 (human) = RAF1 (human) (UniProt P04049)
EPHB4 (human) = EPHB4 (human) (UniProt P54760)
CSNK1G3 (human) = CSNK1G3 (human) (UniProt Q9Y6M4)
CSNK1G3 (human), sequence (Q9Y6M4 whole entry, looked up): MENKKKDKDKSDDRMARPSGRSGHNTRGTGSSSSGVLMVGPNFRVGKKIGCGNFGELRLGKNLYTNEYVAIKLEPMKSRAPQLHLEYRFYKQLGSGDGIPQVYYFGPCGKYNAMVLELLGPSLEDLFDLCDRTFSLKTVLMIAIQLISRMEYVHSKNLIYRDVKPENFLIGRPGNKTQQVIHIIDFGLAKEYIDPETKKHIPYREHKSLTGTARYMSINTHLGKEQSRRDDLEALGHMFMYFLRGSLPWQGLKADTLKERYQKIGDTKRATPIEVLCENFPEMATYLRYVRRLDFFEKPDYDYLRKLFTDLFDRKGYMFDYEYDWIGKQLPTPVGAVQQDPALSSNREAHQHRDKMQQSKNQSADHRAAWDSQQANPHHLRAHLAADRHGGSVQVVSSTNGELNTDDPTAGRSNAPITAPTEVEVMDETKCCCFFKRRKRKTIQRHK

DYRK1A (human) = DYRK1A (human) (UniProt Q13627)
CAMK2A (human) = CAMK2A (human) (UniProt Q9UQM7)
CAMK2A (human), sequence (Q9UQM7 whole entry, looked up): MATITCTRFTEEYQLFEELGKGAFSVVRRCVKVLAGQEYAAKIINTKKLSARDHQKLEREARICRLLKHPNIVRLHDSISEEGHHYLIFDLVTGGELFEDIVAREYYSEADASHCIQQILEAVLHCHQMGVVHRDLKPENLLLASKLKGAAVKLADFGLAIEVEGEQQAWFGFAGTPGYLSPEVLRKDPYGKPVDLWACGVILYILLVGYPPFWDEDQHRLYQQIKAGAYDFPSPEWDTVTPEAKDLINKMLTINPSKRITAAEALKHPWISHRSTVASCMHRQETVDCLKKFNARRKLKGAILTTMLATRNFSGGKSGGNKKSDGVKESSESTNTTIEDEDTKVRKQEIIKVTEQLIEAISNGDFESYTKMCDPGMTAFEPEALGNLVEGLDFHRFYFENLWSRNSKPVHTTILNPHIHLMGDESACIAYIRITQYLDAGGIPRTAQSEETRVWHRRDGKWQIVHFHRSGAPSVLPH

PKN1 (human) = PKN1 (human) (UniProt Q16512)

CAMKK1 (human), sequence (Q8N5S9 whole entry, looked up): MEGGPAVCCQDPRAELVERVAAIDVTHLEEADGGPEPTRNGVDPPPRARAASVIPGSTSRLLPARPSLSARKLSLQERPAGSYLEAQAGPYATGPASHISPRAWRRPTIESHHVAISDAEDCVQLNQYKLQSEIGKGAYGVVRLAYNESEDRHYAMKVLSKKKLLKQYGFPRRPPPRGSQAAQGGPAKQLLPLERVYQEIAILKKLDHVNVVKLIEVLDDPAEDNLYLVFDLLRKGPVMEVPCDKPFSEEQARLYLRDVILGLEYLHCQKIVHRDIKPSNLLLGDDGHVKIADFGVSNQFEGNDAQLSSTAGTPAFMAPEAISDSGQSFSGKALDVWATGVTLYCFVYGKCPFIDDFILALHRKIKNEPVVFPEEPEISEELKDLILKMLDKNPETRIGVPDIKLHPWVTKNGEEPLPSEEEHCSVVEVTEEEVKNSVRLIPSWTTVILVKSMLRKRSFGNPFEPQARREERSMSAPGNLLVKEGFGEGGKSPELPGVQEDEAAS

| Structure (SMILES) | residual activity (CAMKK1 (human)) [%] | residual activity (PRKCA (human)) [%] | residual activity (CDK2 CCNE1 (human)) [%] | residual activity (CSNK1A1 (human)) [%] | residual activity (FGFR3 (human)) [%] | residual activity (MAPK1 (human)) [%] | residual activity (NEK4 (human)) [%] | residual activity [1] [%] | residual activity (FGFR2 (human)) [%] | residual activity (MKNK2 (human)) [%] | residual activity (FLT1 (human)) [%] | residual activity (NTRK2 (human)) [%] | residual activity [2] [%] | residual activity (PIM3 (human)) [%] | residual activity (RPS6KA2 KD1 KD2 (human)) [%] | residual activity (CAMKK2 (human)) [%] | residual activity (TTK (human)) [%] | residual activity (STK33 (human)) [%] | residual activity (MAPK8 (human)) [%] | residual activity (CDK7 CCNH MNAT1 (human)) [%] | other results |
| --- | --- | --- | --- | --- | --- | --- | --- | --- | --- | --- | --- | --- | --- | --- | --- | --- | --- | --- | --- | --- | --- |
| CN(C)CCCn1cc(C2=C(c3c[nH]c4ccccc34)C(=O)NC2=O)c2ccccc21 | 90.8 | 6.27 | 80.4 | 96.5 | 87.9 | 100 | 94.3 | 17.3 | 95.4 | 85.3 | 78.1 | 55.8 | 79.3 | 1.9 | 1.4 | 59.8 | 98.2 | 62.9 | 90.2 | 92.1 | residual activity (MAPK14 (human)): 90.7%; residual activity (LYN (human)): 104% and 84.1%; residual activity (FYN (human)): 88.3%; residual activity (MAPK10 (human)): 99.3%; residual activity (CAMK1D (human)): 68%; residual activity (MST1R (human)): 109%; residual activity (PRKCG (human)): 17.6%; residual activity (JAK2 JH1 JH2 (human)): 93.9%; residual activity (FER (human)): 69.8%; residual activity (PRKCB2 (human)): 12.6%; residual activity (DAPK3 (human)): 84.5%; residual activity (AKT1 (human)): 93.5%; residual activity (CDK5 CDK5R1 p35 (human)): 90%; residual activity (PAK1 (human)): 84.2%; residual activity (DYRK2 (human)): 111%; residual activity (RAF1 (human)): 118%; residual activity (EPHB4 (human)): 86.8%; residual activity (CSNK1G3 (human)): 96.9%; residual activity (DYRK1A (human)): 54.7%; residual activity (CAMK2A (human)): 35.2% |
| COc1ccc(Cl)cc1NC(=O)Nc1cc(C)nc2ccccc12 | 113 | 132 | 94.6 | 101 | 96.3 | 90.4 | 92 | 96.7 | 96.9 | 90.3 | 86.2 | 94.6 | 99.7 | 97.6 | 99.8 | 93.2 | 103 | 103 | 104 | 101 | residual activity (MAPK14 (human)): 98.5%; residual activity (LYN (human)): 111% and 99.2%; residual activity (FYN (human)): 100%; residual activity (MAPK10 (human)): 86%; residual activity (CAMK1D (human)): 99.9%; residual activity (MST1R (human)): 82.4%; residual activity (PRKCG (human)): 107%; residual activity (JAK2 JH1 JH2 (human)): 99.6%; residual activity (FER (human)): 92.4%; residual activity (PRKCB2 (human)): 109%; residual activity (DAPK3 (human)): 100%; residual activity (AKT1 (human)): 95.8%; residual activity (CDK5 CDK5R1 p35 (human)): 102%; residual activity (PAK1 (human)): 94.8%; residual activity (PKN1 (human)): 104%; residual activity (RAF1 (human)): 94.8%; residual activity (EPHB4 (human)): 93.7%; residual activity (CSNK1G3 (human)): 95.7%; residual activity (DYRK1A (human)): 103%; residual activity (CAMK2A (human)): 101% |
| O=C1Nc2ccc(Br)cc2/C1=C\c1cc2c([nH]1)CCCC2 | 69.6 | 102 | 96 | 100 | 55.8 | 103 | 80.5 | 98.4 | 87.4 | 87.1 | 73.4 | 43.6 | 86 | 87.5 | 72 | 68.1 | 95.1 | 77.3 | 107 | 93.6 | residual activity (LYN (human)): 70.8% and 86.8%; residual activity (FYN (human)): 87.5%; residual activity (MAPK10 (human)): 98.7%; residual activity (CAMK1D (human)): 96.8%; residual activity (MST1R (human)): 88.3%; residual activity (PRKCG (human)): 100%; residual activity (JAK2 JH1 JH2 (human)): 95.2%; residual activity (FER (human)): 74.7%; residual activity (PRKCB2 (human)): 85.5%; residual activity (DAPK3 (human)): 92.8%; residual activity (AKT1 (human)): 99.8%; residual activity (CDK5 CDK5R1 p35 (human)): 84.6%; residual activity (PAK1 (human)): 95.7%; residual activity (PKN1 (human)): 91.7%; residual activity (DYRK2 (human)): 90.8%; residual activity (RAF1 (human)): 88.2%; residual activity (EPHB4 (human)): 88.6%; residual activity (CSNK1G3 (human)): 103%; residual activity (DYRK1A (human)): 87.1%; residual activity (CAMK2A (human)): 93.3% |

Source: the kinase profiling compilation of Christmann-Franck et al. (2016)
